Laboratory results: patent US8273700B2, “Methods and compositions for treatment of cystic fibrosis” (The Johns Hopkins University, priority 2005, dated 2012)
Entries after “also recorded” stand apart in the source; their conditions may differ. Where a SMILES comes first, the peptide text is derived from it. [ ]: non-standard residue; d: D form. Nle = CCCC[C@H](N)C(=O)O

Tests used:
[1] = system: IL8; assay: IL8 cytokine ELISA in IL1-β induced IB3-1 cells; assay type: cell-based, human; conditions: for IL8 cytokine levels: IL1-β 1 ng/ml 12 hrs
[2] = system: NFκB; assay: NoShift NFκB binding assay on nuclear extracts of IB3-1 cells; assay type: cell-based, human; conditions: for NFκB binding (absorbance at 450 nm): IL1-β 1 ng/ml 12 hrs, transfection 24 hrs or 5 μM bortezomib / 5 μM MLN-273 6 hrs (FIG. 6C)
Experimental: IB3-1 cells transfected (24 hrs) with ΔVCP, ΔF508 or ΔCHOP were treated with 5 μM bortezomib (6 hrs)/5 μM MLN-273 (6 hrs)/5 mM 4PBA (24 hrs). Cells were induced with IL-β(1 ng/ml) for 12 hrs. After 24 hrs of transfection, nuclear extracts (11) were collected using NucBuster protein extraction kit (Novagen, San Diego, Calif.) and the shift in bound NFκB was measured using NoShift NFκB Binding Assay kit (Novagen, San Diego, Calif.) as specified by the manufacturer. The signal from nuclear extracts was compared with the negative control (minus extract). The specificity of protein binding was established using NFκB specific and mutant competitors. The plates were read at 450 nm on 96-well microplate reader (Molecular Devices) using SOFT-MAX-Pro software. The absorbance readings were used to determine the levels of bound NFκB. The data represents mean of three independent experiments±SD.

[3] = system: ΔF508-CFTR; design: dose or concentration left out as unconfirmed; conditions: cited from earlier work
[4] = system: ΔF508-CFTR; assay: Pulse-chase metabolic labeling and CFTR immunoprecipitation in IB3-1 cells; assay type: cell-based, human; conditions: metabolic labeling t=2 hrs, transfection 48 hrs or 10 μM bortezomib 6 hrs (FIG. 2D)
Experimental: (§1) The IB3-1 (ΔF508/W1282X; low level expression of ΔF508-CFTR and no W1282X protein), CFTE (ΔF508-homozygous) and S9 (IB3-1 corrected by AAV-CFTR) cells were maintained in LHC-8 media containing 100 units/ml penicillin, 100 μg/ml streptomycin, 0.25 μg/ml amphotericin B and 10% fetal bovine serum. LHC-8 media was purchased from Biosource and other components were purchased from Gibco (Invitrogen, Carlsbad, Calif.). The cells were plated on 6-well plates and transfected with 4 μg plasmid DNA each of ΔF508/wt-CFTR-GFP and co-transfected with VCP shRNA (ΔVCP), VCPQQ construct (deficient in two AAA ATPase domains, D1 & D2), gp78 siRNA (Δgp78) or gp78ΔC (deficient in VCP binding domain) constructs using Lipofectamine 2000 (Invitrogen, Carlsbad, Calif.) as described by the manufacturer. After 48 hrs of transfection, cells were rinsed three times and starved for 1 hr in methionine- and cysteine-free Dulbecco's modified Eagle's medium (DMEM). Cells were pulse labeled with 250 μci/ml [^35S]-methionine and cysteine (ICN Biomedical, Irvine, Calif.) for 30 min and than chased in DMEM containing 10 mM methionine and 4 mM cysteine for indicated times.
(§2) Cells were lysed directly on plates using M-PER (Pierce Biotech. Inc., Rockford, Ill.) protein lysis buffer containing protease inhibitor cocktail (Roche) after three washes with ice cold PBS. […] Proteins were detected using respective primary antibodies. […]

[5] = system: NF-κB; conditions: mammalian cells; cited from earlier work
[6] = system: wt-CFTR; assay: Pulse-chase metabolic labeling and CFTR immunoprecipitation in S9 cells; assay type: cell-based, human; conditions: S9 cells transfected with wt-CFTR; ΔVCP 48 hrs or 10 μM bortezomib 6 hrs (FIG. 2B)
Experimental: as §1, §2

[7] = system: E-selectin, ICAM-1, and VCAM-1; conditions: primary human umbilical vein endothelial cells; cited from earlier work
[8] = molecular target: T1, CFTR (Homo sapiens, UniProt P13569, DEL508-508); assay: MQAE assay of CFTR-mediated chloride transport in IB3-1 cells; assay type: cell-based; conditions: for MQAE fluorescence (Cl- channel activity): 10 μM forskolin or genistein, 5 μM CFTR inhibitor 172 or 14-22 amide (FIG. 5A)
T1 construct: expressed in transfected cells; host or cells: IB3-1 (ΔF508/W1282X) and CFTE (ΔF508 homozygous) cells
T1 sequence (P13569 with tags, fused parts or gaps DEL508-508): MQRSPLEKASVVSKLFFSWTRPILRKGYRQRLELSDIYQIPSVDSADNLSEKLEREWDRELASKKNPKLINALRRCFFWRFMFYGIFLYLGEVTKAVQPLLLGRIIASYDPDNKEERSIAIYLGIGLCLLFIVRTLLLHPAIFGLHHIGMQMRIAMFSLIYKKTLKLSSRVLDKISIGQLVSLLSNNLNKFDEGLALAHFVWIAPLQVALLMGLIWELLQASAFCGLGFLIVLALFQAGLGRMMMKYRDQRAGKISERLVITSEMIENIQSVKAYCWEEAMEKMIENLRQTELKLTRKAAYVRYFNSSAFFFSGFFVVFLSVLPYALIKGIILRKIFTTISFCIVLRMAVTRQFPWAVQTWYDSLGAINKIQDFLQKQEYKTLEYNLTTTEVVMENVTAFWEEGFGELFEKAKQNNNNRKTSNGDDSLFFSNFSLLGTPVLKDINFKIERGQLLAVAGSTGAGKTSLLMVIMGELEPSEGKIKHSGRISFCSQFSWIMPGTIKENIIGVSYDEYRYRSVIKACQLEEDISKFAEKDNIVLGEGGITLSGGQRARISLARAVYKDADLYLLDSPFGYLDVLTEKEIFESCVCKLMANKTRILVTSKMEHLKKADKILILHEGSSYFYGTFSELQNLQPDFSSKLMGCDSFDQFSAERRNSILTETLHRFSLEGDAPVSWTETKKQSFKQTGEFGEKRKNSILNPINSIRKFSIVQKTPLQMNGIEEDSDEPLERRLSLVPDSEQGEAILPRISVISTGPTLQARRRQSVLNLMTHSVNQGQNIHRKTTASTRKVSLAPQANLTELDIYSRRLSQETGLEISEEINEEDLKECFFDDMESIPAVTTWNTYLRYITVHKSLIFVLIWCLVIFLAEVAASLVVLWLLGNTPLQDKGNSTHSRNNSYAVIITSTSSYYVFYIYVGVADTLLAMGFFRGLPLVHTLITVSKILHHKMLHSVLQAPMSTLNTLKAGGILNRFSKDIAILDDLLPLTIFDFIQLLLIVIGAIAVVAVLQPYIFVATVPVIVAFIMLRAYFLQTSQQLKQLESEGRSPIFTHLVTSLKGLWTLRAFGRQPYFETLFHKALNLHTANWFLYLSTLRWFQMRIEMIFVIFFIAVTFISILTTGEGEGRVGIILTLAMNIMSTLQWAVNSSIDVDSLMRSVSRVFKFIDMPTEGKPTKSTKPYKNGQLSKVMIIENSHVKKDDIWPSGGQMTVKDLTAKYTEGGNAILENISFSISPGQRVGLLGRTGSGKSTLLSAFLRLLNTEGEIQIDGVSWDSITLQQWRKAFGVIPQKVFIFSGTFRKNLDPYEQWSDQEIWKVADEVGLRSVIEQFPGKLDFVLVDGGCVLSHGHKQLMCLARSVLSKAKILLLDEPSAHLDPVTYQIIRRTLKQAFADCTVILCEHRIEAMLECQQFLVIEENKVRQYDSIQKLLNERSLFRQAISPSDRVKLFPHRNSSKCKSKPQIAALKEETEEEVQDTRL
Experimental: CFTR-mediated chloride transport activity in IB3-1 cells transfected with ΔVCP, VCPQQ, Δgp78 and gp78ΔC constructs, and treated with bortezomib (1, 5 or 10 μM) was assayed by the halide-sensitive dye, MQAE. Fluorescence of MQAE is quenched by halides. Cells were grown on glass coverslips in DMEM containing 10% FBS. Cells were loaded with the dye by hypotonic shock at 37° C. for 40 min in Opti-MEM/water (1:1) containing 10 mM MQAE, washed and then mounted in a perfusion chamber for fluorescence measurements. Fluorescence was measured using a Zeiss inverted microscope coupled to a CCD camera Excitation and emission wavelengths were 350 nm and 460 nm, respectively. The stage and objective lenses were maintained at 37° C. The media was kept flowing through the perfusion chamber at 1 ml/min using a peristaltic pump. Both 10 μM forskolin and 10 μM genistein were used to induce Cl^− transport in IB3-1 cells. CFTR was inhibited with either 5 μM CFTR inhibitor 172 (12) or 14-22 amide (Calbiochem, San Diego, Calif.) to reduced cAMP mediated phosphorylation. Chloride efflux was calculated using following equations: F0/FCl=1+[Cl-]i*Ksv (1) F0=F20*(1+0.02*Ksv) (2) (dCl/dt)=F0/[Ksv*(FCl)2]*dFCl/dt (3)

[9] = system: Hsp40; assay: Immunoblotting for Hsp40 in IB3-1 cells; assay type: cell-based, human; conditions: IB3-1 cells treated with bortezomib 6 hrs (FIG. 3A)
Experimental: (§3) Cells were lysed directly on plates using M-PER (Pierce Biotech. Inc., Rockford, Ill.) protein lysis buffer containing protease inhibitor cocktail (Roche) after three washes with ice cold PBS. CF bronchial brushings were transferred to lysis buffer. For immunoprecipitation, 500 μg/ml (cell culture)/50 μg/ml (bronchial brushings) total protein extracts were incubated with 50 μl of protein A/G agarose beads (Santa Cruz Biotechnology Inc., Santa Cruz, Calif.) for 3 hours at 4° C. After preclearing, 5 μg of respective primary antibody or pre-immune sera (negative control) was added to each tube. After 1 hour, protein A/G agarose beads (50 μL) were added to each tube and tubes were incubated overnight at 4° C. Beads were washed once with lysis buffer (20 mM Tris-HCl [pH 7.6], 150 mM NaCl, 0.5% Triton X-100 and 10 μM phenylmethylsulfonyl fluoride [PMSF]) followed with two washes with phosphate buffer saline (PBS). The beads were suspended in Laemmli's sample buffer (30 μL) containing β-mercaptoethanol, vortexed for 1 minute, resolved by 4-10% SDS-PAGE and transferred to a 0.4-μm pore size nitrocellulose membrane. Proteins were detected using respective primary antibodies. For pulse chase experiments, CFTR immunoprecipitate was eluted with sample buffer and separated on a 4-8% SDS-PAGE, dried for 2 hours and processed for autoradiography.

[10] = system: proteasome; assay: Protease activity in IB3-1 cells; assay type: cell-based, human; conditions: 10 μM, 6 hrs treatment
[11] = system: IB3-1 cells; assay: Microscopic examination of cell morphology; assay type: cell-based, human; conditions: 10 μM bortezomib 6 hrs, phase microscopy (data not shown)
[12] = system: gp78; assay: Immunoblotting for gp78 in IB3-1 cells; assay type: cell-based, human; conditions: IB3-1 cells treated with bortezomib 6 hrs (FIG. 3A)
Experimental: as §3

[13] = system: Hsp70; assay: Immunoblotting for Hsp70 in IB3-1 cells; assay type: cell-based, human; conditions: IB3-1 cells treated with bortezomib 6 hrs (FIG. 3A)
Experimental: as §3

[14] = system: streptococcal cell wall-induced polyarthritis; conditions: rat; cited from earlier work
[15] = system: ΔF508-CFTR; assay: Pulse-chase metabolic labeling and CFTR immunoprecipitation in CFTE cells; assay type: cell-based, human; conditions: CFTE cells transfected with ΔF508-CFTR, 10 μM bortezomib 6 hrs, 42 hrs post-transfection (FIG. 2C)
Experimental: as §1, §2

[16] = system: VCP; assay: Immunoblotting for VCP in IB3-1 cells; assay type: cell-based, human; conditions: IB3-1 cells treated with bortezomib 6 hrs (FIG. 3A)
Experimental: as §3

[17] = transfection 24 hrs or 5 μM bortezomib / 5 μM MLN-273 6 hrs (FIG. 6B)

## CC(C)C[C@H](NC(=O)[C@H](Cc1cccc2ccccc12)NC(=O)N1CCOCC1)B(O)O [MLN273]
[1]; [17]
  IL8 cytokine levels: significantly inhibited
[2]
  NFκB binding (absorbance at 450 nm): significantly inhibited

## CCCC[C@@H](C=O)NC(=O)[C@H](CC(C)C)NC(=O)[C@H](CC(C)C)NC(C)=O [ALLN, N-acetyl-leucylleucyl-Norleucinal] (Ac-Leu-Leu-[Nle]-aldehyde)
[3]
  ΔF508-CFTR degradation: blocks ΔF508-CFTR it degradation

## CC(C)C[C@H](NC(=O)[C@H](Cc1ccccc1)NC(=O)c1cnccn1)B(O)O [bortezomib, pyrazylcarbonyl-Phe-Leu-boronate]
[4]
  level of immature B form of ΔF508-CFTR: partially rescues
  rescue of ΔF508-CFTR from ERAD: partially rescued ΔF508-CFTR
[5]
  NF-κB activation and NF-κB-dependent gene expression: inhibit NF-κB activation and NF-κB-dependent gene expression
[6]
  wt-CFTR maturation and stability, band B to band C: substantial amounts of mature band C; also recorded: stabilizes the wild type-CFTR mature (C-form)
[7]
  TNF-α-induced gene expression of cell-surface adhesion molecules: inhibits
[8]; IB3-1 cells transfected with ΔF508-CFTR, bortezomib 5 or 10 μM for 6 hrs, bars in mM/s (FIG. 5C)
  genistein mediated chloride efflux: augmented chloride efflux; also recorded: significantly induced
[8]; IB3-1 cells, with genistein (FIG. 5C)
  combined effect with genistein on rescue of functional ΔF508-CFTR: synergistic effect
[9]
  Hsp40 protein level: no change
[10]
  protease activity: partial inhibition
[11]
  morphology of treated vs untreated monolayers: no difference in morphology
[1]; [17]
  IL8 cytokine levels: significantly inhibited
[1]; transfection 48 hrs or 5 μM bortezomib 6 hrs (FIG. 6A)
  IL8 cytokine levels: significantly downregulated; also recorded: significantly inhibited
[1]; ΔCHOP 24 hrs plus 5 μM bortezomib 6 hrs, IL1-β 1 ng/ml (FIG. 6B)
  combined effect of ΔCHOP and bortezomib on IL8 down regulation: synergistic effect
[12]
  gp78 protein level: no change
[13]
  Hsp70 protein level: Induction
[13]; listed as Bortezomib
  Hsp70 protein level: induced
[14]
  T cell-dependent chronic phase of the inflammatory response: markedly inhibited
  neutrophil-predominant acute phase of the inflammatory response: attenuated
[15]
  ΔF508-CFTR accumulation and rescue: significant increase in the accumulation and stabilization of the B form; also recorded: rescues the ΔF508-CFTR mature (C-form) by 2 hrs
[2]
  NFκB binding (absorbance at 450 nm): significantly inhibited
[2]; ΔCHOP 24 hrs plus 5 μM bortezomib 6 hrs, IL1-β 1 ng/ml (FIG. 6C)
  combined effect of ΔCHOP and bortezomib on NFκB binding: synergistic effect
[16]
  VCP protein level: inhibition
[16]; listed as Bortezomib
  VCP protein level: inhibited

## O=C(O)c1ccc(/C=C2\SC(=S)N(c3cccc(C(F)(F)F)c3)C2=O)cc1 [172 inhibitor]
[8]; IB3-1 cells
  MQAE fluorescence (Cl- channel activity): block the cAMP mediated cystic fibrosis transmembrane receptor (CFTR) activity

## O=c1c(-c2ccc(O)cc2)coc2cc(O)cc(O)c12 [genistein]
[8]; IB3-1 cells
  MQAE fluorescence (Cl- channel activity): significant change
[8]; IB3-1 cells, listed as Genistein
  MQAE fluorescence (Cl- channel activity): significant increase
